Laboratory results reported in patent US20110123483A1, “HMGB1 FOR CANCER TREATMENT” (DEUTSCHES KREBSFORSCHUNGSZENTRUM, priority 2009, published 2011).

Tested on: mitochondrial DNA
Experiment: Dot blot analysis of mitochondrial DNA
Assay type: cell-based, human
Conditions: 24 h (FIG. 11A)
Description: Subcellular fractionation was performed as described below. The DNA of the resulting mitochondrial suspension was purified by a modified method described in Almeida et al. (Almeida et al., 2006). Briefly, contaminating nuclear DNA was precipitated by lysis of the mitochondria in a buffer of 50 mM glucose, 1.5 mM EDTA, 25 mM Tris-HCl, pH 7.4 with 20% SDS and 3 M K-acetate. After centrifugation (10 min, 4° C., 10.000×g) the supernatant was digested with 20 mg/ml proteinase K for 1 h at 37° C. and mtDNA was extracted twice with phenol-chloroform and one additional time with chloroform, followed by precipitation of mtDNA from the aqueous phase by adding two volumes of isopropanol. The pellet was washed with 80% ethanol at −20° C. After drying the mtDNA was solved in TE-buffer (10 mM Tris-HCl, pH 7.4, 1 mM EDTA, pH 8.0). After treatment of the samples with 100 μg/ml ribonuclease A (RNAse A) for 1 h at 37° C., the phenol-chloroform extraction steps were repeated and mtDNA was precipitated by adding 2 volumes of 100% ethanol and 1/10 volume 5 M NaCl at −20° C. overnight. After a centrifugation step for 20 min at 4° C. with 13,000 rpm and washing the pellet 2× with 80% ethanol, followed by drying, the pellet was solved in ddH2O. The purified DNA was digested overnight with BamHI and loaded on a 0.5% agarose gel. […] Labeling efficiency was determined as described in the kit. […]

rhHMGB1: recombinant human High Mobility Group B1 protein (Sigma Aldrich)
mitochondrial DNA content: substantial and rapid depletion of mtDNA
